According to US12433892B2, “Compositions and methods of treatment for neurological disorders comprising depression” (Gliapharm SA, priority 2018, dated 2025):
Structures can show the parent of a compound that is named as a salt.

Assays:
[1] = tested on: cerebral extracellular lactate; test: In vivo pharmacodynamics: lactate biosensors in cortex; design: species or system mouse; conditions: 10 mg/kg per os
Protocol: Extracellular levels of lactate were monitored in vivo using lactate biosensors (Pinnacle Technology), according to the manufacturer's instructions. Cannulae were surgically implanted in mice cerebral cerebral motor cortex areas M1/M2 (coordinates: +1.94 mm (to bregma), lateral −1.4 mm (to mideline), ventral −1.0 mm (to dura)) 5-7 days before administration of the compounds. Drugs were administered per os as previously described, and cerebral levels of extracellular lactate were dynamically recorded for 6 hours. Mice were administered vehicle alone first, followed 3 hours later by vehicle or drug (10 or 100 mg/kg). Area Under the Curve (AUC) quantifying the fluctuations of extracellular lactate concentrations for each of the compound tested was calculated using Graphad Prism and the ratio of AUC after drug over Vehicle administration was calculated. Groups of 8 male mice were used for each condition.
To measure biological effect of lead molecules in vivo in the brain, lactate levels were quantified after administration of the drug by using lactate biosensors implanted in the cortex of freely moving mice.

[2] = In vivo pharmacokinetics (PFC microdialysis and plasma); design: species or system mouse; conditions: after gavage with 100 mg/kg
Protocol: Mice were anesthetized using isoflurane (2% and 800 mL/min O2). Before surgery, Finadyne (1 mg/kg, s.c.) was administered for analgesia during surgery and the post-surgical recovery period. A mixture of bupivacaine and epinephrine was used for local anesthesia of the incision site of the periost of the skull.
The animals were placed in a stereotaxic frame (Kopf instruments, USA). MetaQuant microdialysis probes with a 3 mm exposed polyacrylonitrile membrane (MQ-PAN 3/3, Brainlink, the Netherlands) were implanted into the prefrontal cortex (coordinates for the tip of the probe: AP=+2.0 mm (to bregma), lateral=−0.7 mm (to midline), ventral=−3.3 mm (to dura), with the incisor bar set at 0.0 mm and an angle of 8°). All coordinates were based on “The mouse brain in stereotaxic coordinates” by Paxinos and Franklin (2004). The probes were attached to the skull with a stainless steel screw and dental cement (Fuji Plus Capsules, Henry Schein, the Netherlands).
In the same surgical procedure, a catheter was placed into the jugular vein to accommodate blood sampling. An indwelling cannula was inserted into the right jugular vein, and exteriorized through an incision on top of the skull. The end of the jugular vein catheter was fixed in position with dental acrylic cement and attached to the skull with two stainless steel screws.
Experiments were initiated one day after surgery. The MetaQuant microdialysis probes were connected with flexible PEEK tubing (Western Analytical Products Inc. USA; PK005-020) to a microperfusion pump (CMA Microdialysis) and perfused with aCSF+0.2% BSA at a flow rate of 0.12 μL/min. Ultrapurified water+0.2% BSA was used as the carrier flow at a flow rate of 0.80 μL/min. After a minimum of 1.5 hours of prestabilization, microdialysis samples were collected in 30 minute intervals. Samples were collected into polystyrene microvials (Microbiotech/se AB, Sweden; 4001029) using an automated fraction collector (UV 8301501, TSE, Univentor, Malta). After collection of three basal samples, at t=0 minutes, drug of interest was administered per os. Eight additional samples were collected after compound administration. All samples were stored at −80° C. until off-line analysis.
In parallel, blood samples (50 μL) were taken from the jugular vein through the cannula. These samples were collected at specified intervals into vials containing 5 μL heparin (500 IE/mL in saline). The samples were mixed by inverting the tubes and, subsequently, centrifuged at 4000 rpm (1500×g) for 10 min at 4° C. The supernatant was stored as plasma in 1.5 mL Eppendorf vials (Sarstedt, Germany) at −80° C. until off-line analysis.
At the end of the experiment, the animals were euthanized and terminal brain tissue was collected for visual histological verification of the probe positions.
PK was measured for GP-04, GP-05, GP-07, GP-R1 and GP-P1 in the PFC (prefrontal cortex) and plasma of wild type C56Bl/6 mice by CRO Brainsonline.

[3] = tested on: C57Bl/6 male and female mice; test: In vivo chronic toxicity (28 days)
Protocol: During this period, clinical symptoms and weight were recorded.
Chronic toxicity was assessed.

[4] = tested on: astrocytes; test: Intracellular glycogen quantification; format: cell-based, mouse; conditions: Prestwick hits; 10 uM, 3 h
[5] = tested on: C57Bl/6 mice; test: Forced swim test (FST); format: in vivo, mouse; conditions: 100 mg/kg per os, 1.5 hr
Protocol: (§1) The depression mouse model features wild-type C57Bl/6 laboratory mice without any transgenic changes. To ensure that the actions of the tested molecules in the animal models of depression are not due to effects on locomotor activity or muscle strength in animals, molecules are administered to mice that are then tested in the grip strength test (GST) and in the open-field test (OFT) following the protocols described in Carrard et al. (Carrard, Elsayed, Margineanu, Boury-Jamot, Frangiere, Meylan, Petit, Fiuemlli, Magistretti and Martin. Peripheral administration of lactate produces antidepressant-like effects. Molecular Psychiatry, 2016 Oct. 18, e-pub). If alterations in muscle strength and/or locomotor activity are measured following administration drug, no further analyses are performed with this molecule.
FST is a test used to identify molecules that produce an acute antidepressant-like behavioral response.
1.5 hr after a single oral (vehicle or lactate-enhancing molecules) or intraperitoneal (vehicle, fluoxetine or despratmine) administration, mice are placed in a cylindrical container filled to a depth of 15 cm with water (23-25° C.). 6-min swim session are videotaped, and time spent immobile, which reflects the animal depressive-like behavior, is scored subsequently by an experimenter blind to the conditions used.

[6] = tested on: C57Bl/6 mice; test: Grip strength test (GST); format: in vivo, mouse; conditions: 100 mg/kg per os, 1.5 hr
Protocol: as §1
GST is a test used to identify molecules that could modulate mouse grip strength, which might affect results in the FST. 1.5 hr after a single oral molecules administration, mice are placed on a grid dynamometer and the muscle strength (N) or their two front paws or all their four paws is measured in 3 consecutive sessions, and the best score is recorded.

[7] = tested on: C57Bl/6 mice; test: Open field test (OFT); format: in vivo, mouse; conditions: 100 mg/kg per os, 1.5 hr
Protocol: as §1
OFT is a test used to identify molecules that could modulate mouse activity, which might affect results in the FST. 1.5 hr after a single oral molecules administration, mice are placed in a 39 cm (long)×33 cm (large)×33 cm (high) open box and their activity is videotaped for 10 minutes. Mouse activity is then automatically scored using Ethovision pro video tracking system (Noldus).

[8] = tested on: primary astrocytes; test: High throughput screening (HTS) for lactate secretion: acidification of extracellular medium (SNARF5); format: cell-based, mouse; conditions: Appendix I; primary screening confirmation (SNARF5)
Protocol: Primary cultures of cerebrocortical astrocytes were obtained from 1-2-day-old OF1 mouse pups (Charles River Laboratories). Briefly, cortices were isolated and minced in small pieces under a dissecting microscope. The cells were incubated for 30 min at 37° C. in a solution containing 20 U/ml of papain enzyme (Worthington Biochemical), L-cysteine 1 mM (Sigma), and 10 kU/ml DNase I (Worthington Biochemical) for an enzymatic dissociation. […]
Secretion of lactate in a high-throughput screening (HTS) fashion was measured indirectly through the acidification of extracellular medium. […]
After 90 min stimulation, fluorescence was read at exc. […] The ratio of fluorescence between 630 nm and 580 emission values, which represents extracellular pH, was calculated.
In each plate, 8 wells were used for negative controls (DMSO) and 8 wells were used for positive controls (CCCP 2 uM in DMSO). Z prime values were calculated for each of the plates tested and values<0 were discarded.
The average and SD of compounds' values tested in duplicates were calculated, and compound was noted as HIT when the difference between compound's average and negative control's average was greater than three times the sum of compound's SD and negative controls' SD. […] Scores are calculated as the % of activity compared to the positive control in each plate (which is 100%). […]

[9] = tested on: astrocytes; test: Extracellular lactate quantification; format: cell-based, mouse; design: Score_LACTATE / Score Lact.: scale not given here; conditions: Appendix I; secondary screening, dosage of extracellular lactate
Protocol: Primary cultures of cerebrocortical astrocytes were obtained from 1-2-day-old OF1 mouse pups (Charles River Laboratories). Briefly, cortices were isolated and minced in small pieces under a dissecting microscope. The cells were incubated for 30 min at 37° C. in a solution containing 20 U/ml of papain enzyme (Worthington Biochemical), L-cysteine 1 mM (Sigma), and 10 kU/ml DNase I (Worthington Biochemical) for an enzymatic dissociation. Papain activity was stopped by the addition of fetal calf serum (FCS) to the solution, and a single-cell suspension was then obtained by mechanical dissociation, which consisted in cells trituration in a DMEM (D7777, Sigma-Aldrich) medium (supplemented with 44 mm NaHCO3, and 10 ml/L antibiotic/antimycotic solution) containing 10% FCS. The cells were seeded at an average density of 6×10^4 cells/cm^2 in poly-D-lysine-coated 96, 12 or 6-well culture plates, depending on their use, and incubated at 37° C. in a humidified atmosphere containing 5% CO2/95% air. Culture medium was renewed twice per week. Cells were stimulated and harvested between DIV14 and DIV17, when confluence and cell growth were optimal.
Secretion of L-lactate was determined in the extracellular medium of 96-well plated astrocytes after 90 min stimulation (at 37° C., in 5% CO2/95% air conditions) with the drug of interest. The stimulation medium was composed of D5030 medium (completed with D-glucose 5 mM and 44 mM sodium bicarbonate) for 90 min in concentrations ranging from 0 to 100 μM.
Briefly, 200 μl of a Glycine (Sigma)-Semicarbazide (Acros) 0.2M pH 10 buffer containing 3 mM NAD (Roche) and LDH 14 U/ml (Roche) was added to each well of a 96-well plate containing 30 μl aliquots complemented with 20 μl fresh complete D5030 medium. Samples were incubated at 37° C. for 1 h. After samples cooled down at room temperature, the fluorescence intensity (340 nm excitation/450 nm emission) that represents the amount of NADH produced was measured, and lactate concentration values were determined from a standard curve of L-lactate.
Statistical analysis consisted in ANOVA followed by Fisher LSD post-hoc test for pair-wise comparisons.
Levels of lactate secreted by astrocytes were measured in the extracellular medium at 90 min after stimulation with hits (molecules) from the CDC54K library.

For COc1ccc(Cc2nccc3cc(OC)c(OC)cc23)cc1OC [Papaverine hydrochloride], the “cerebral lactate (AUC ratio vs vehicle)” value [1] was “Significant increase”, the “levels in the PFC” value [2] was “at therapeutic range (100 nM to 1 uM) and sustained over several hours” and the “chronic toxicity (toxic or safe)” value ([3]; 10 mg/kg per os once a day, 28 days) was “safe”. For the same molecule, the pathological analysis ([3]; chronic 10 mg/kg, liver, kidney) was “minor treatment-related effects”, the “Glycogen (statistical significance of glycogen degradation)” value [4] was “**** (****p<0.0001)” and the time spent immobile [5] was “significant reduction”. The grip strength [6] was “does not affect” and the “activity (open field)” value [7] was “does not affect”.

O=C(C[n+]1cc(-c2ccccc2)n2c1CCC2)c1ccc(Br)cc1.[Br-] [T0502-5560] gave a Score_SNARF [8] of 0.8504 and a Score_LACTATE [9] of 0.8524.
